Test results: patent publication US20080021002A1, “VITAMIN D COMPOUNDS USED TO STABILIZE KIDNEY TRANSPLANTS” (priority 2000, published 2008)

Tested on: kidney or kidney-pancreas transplant recipients
Conditions: human, in vivo
From the text: Methodology-retrospective analysis: The University of Wisconsin transplant database was screened to identify any kidney and/or kidney-pancreas transplant recipient who received 1,25-dihydroxyvitamin D3 (calcitriol)peri-post-transplant. Clinical and demographic variables were abstracted from the database. Those patients with adequate follow-up data were included in the analysis (≧1year follow-up data following the initiation of calcitriol). Demographic variables included race, age, and nay history of parathyroidectomy as these patients would likely be receiving calcitriol at time of transplantation. The effect of calcitriol treatment on renal function was analyzed using general linear mixed modeling of the change in slope of renal function prior to and following the start of calcitriol therapy. […] Adverse events and hypercalcemia were noted by identifiers in the database and by serum calcium levels as recorded in the database. Hypercalcemia was defined as a serum calcium >10.5 mg/dl.
The mean serum calcium in Group 1 and Group 2 patients was <10 mg/dl (9.6±0.9 mg/dl). There were no episodes of sustained hypercalcemia (>2 serial hypercalcemia values noted) or hypercalcemia events requiring hospitalization. There were no episodes of substained hematuria that could be directly attributable to hypercalcemia.

Episodes of sustained hematuria attributable to hypercalcemia: no episodes
SMILES: C=C1/C(=C\C=C2/CCC[C@]3(C)[C@@H]([C@H](C)CCCC(C)(C)O)CC[C@@H]23)C[C@@H](O)C[C@@H]1O [calcitriol, 1,25-dihydroxyvitamin D3]
